Paper PMC4604124, “In Vitro Characterization of the Pharmacological Properties of the Anti-Cancer Chelator, Bp4eT, and Its Phase I Metabolites” (PLoS ONE, 2015)
Values joined by “and” are separate entries in the source; they are usually repeats but may differ in a detail not shown here. Equal entries are not always repeated.

Tests used:
[1] = parameters: method as in PMID 24254882; conditions: cited from earlier work
MCF-7 cells = assay: Epifluorescence microscopy, triple staining MDC / annexin V-FITC / propidium iodide; assay type: cell-based, human; conditions: Bp4eT 10 or 100 nM 72 h, rapamycin 1 nM 30 min
Experimental: Markers used to assess autophagy/apoptosis/necrosis in MCF-7 cells and changes of lysosomal and mitochondrial morphology were observed using an Eclipse Ti inverted epifluorescence microscope (Nikon, Tokyo, Japan), that was equipped with a cooled digital camera Zyla 5.5 sCMOS (Andor Technology, Belfast, UK), and NIS-Elements C 4.1 software (Laboratory Imaging, Prague, Czech Republic). The MCF-7 cells were seeded in 6-well plates with cover slips on the bottom at a density of 150,000 cells/well and incubated as described above in the presence or absence of 10 or 100 nM Bp4eT.
To assess the mechanism of cellular death after incubation with Bp4eT, triple staining with monodansyl cadaverine (MDC; 50 μM; λex = 390 nm; λem = 455 nm; Sigma-Aldrich), annexin V-FITC (5 μL/mL; λex = 495 nm; λem = 519 nm; Invitrogen, Carlsbad, CA, USA), and propidium iodide (5 μg/mL; λex = 560 nm; λem = 630 nm) was used. MDC is a marker of autophagosomes and lysosomes and results in blue fluorescence. As a positive control for autophagy, MCF-7 cells were incubated with 1 nM rapamycin (Sigma-Aldrich) for 30 min/37°C, which is an established inducer of autophagy. Annexin V has high affinity to phosphatidylserine, which is translocated to the surface of both early- and late-stage apoptotic cells. […]

LC3-II = assay: Western blot and densitometry of LC3-I/II (autophagy); assay type: cell-based, human; conditions: for densitometry WB, relative to NT = 1: single blot
Description: Established protocols were used to prepare cell lysates and perform immunoblot analysis. Primary antibodies used include: rabbit LC3 (Cat. #: MBPM036; 1:2,000) from Abacus (Brisbane, Australia) and mouse β-actin (Cat. #: A1978, 1:10,000) from Sigma-Aldrich. The following secondary antibodies were utilized: horseradish peroxidase (HRP)-conjugated anti-rabbit (Cat. #: A6154, […]) and anti-mouse (Cat. #: A4416, 1:10,000) antibodies from Sigma-Aldrich. To ensure equal loading of proteins, membranes were probed for β-actin.

[2] = Supplementary Fig 2, 5uM (5M [sic] for Bp4eT)
[3] = Supplementary Fig 2, Baf+, 10nM
[4] = Supplementary Fig 2, Baf+, 100nM
[5] = Supplementary Fig 2, Baf+, 5uM (5M [sic] for Bp4eT)

CCN=CNN=C(c1ccccc1)c1ccccn1 [Bp4eA, N ^3-ethyl-N ^1-[phenyl(pyridin-2-yl)methylene]formamidrazone]
Highest concentration in plasma ([1]; rat plasma, after 300 min post i.v. administration of Bp4eT): < 1 µM
Exposure relative to that of the parent compound ([1]; rats, intravenous administration of Bp4eT): 20%

CCNC(=S)NN=C(c1ccccc1)c1ccccn1 [Bp4eT, 2-benzoylpyridine 4-ethyl-3-thiosemicarbazone]
Staining for autophagy/apoptosis/necrosis (MDC, annexin V-FITC, propidium iodide) (MCF-7 cells): dose-dependent increase in the number of green annexin V-stained cell membranes or bodies
LC3II expression with Baf A1 relative to Baf A1 and control (LC3-II; 24 h/37°C, MCF-7, agent at all concentrations (10 nM– 5 μM), Baf A1 100 nM): did not lead to a significant (p > 0.05) increase
LC3-II levels upon co-incubation with Baf A1, compared to Baf A1 alone (LC3-II; 72 h/37°C, MCF-7, Baf A1 100 nM, Bp4eT 10 and 100 nM, Dp44mT 100 nM): significant (p < 0.001–0.05) suppression
densitometry WB, relative to NT = 1, Average (LC3-II; Fig 7E, 10nM): 6.247
densitometry WB, relative to NT = 1 (LC3-II; Fig 7E, 10nM): 4.981 and 5.294 and 8.4664
densitometry WB, relative to NT = 1, Average (LC3-II; Fig 7E, 100nM): 6.003
densitometry WB, relative to NT = 1, Average (LC3-II; Supplementary Fig 2, 10nM): 1.7596
densitometry WB, relative to NT = 1, Average (LC3-II; Supplementary Fig 2, 100nM): 0.8507
densitometry WB, relative to NT = 1, Average (LC3-II; [2]): 0.7357
densitometry WB, relative to NT = 1 (LC3-II; [2]): 0.9358 and 0.7729 and 0.4982
densitometry WB, relative to NT = 1, Average (LC3-II; [3]): 143.432
densitometry WB, relative to NT = 1 (LC3-II; [3]): 159.536 and 131.647 and 139.114
densitometry WB, relative to NT = 1, Average (LC3-II; [4]): 74.7567
densitometry WB, relative to NT = 1 (LC3-II; [4]): 63.4737 and 60.9216 and 99.8746
densitometry WB, relative to NT = 1, Average (LC3-II; [5]): 159.207
densitometry WB, relative to NT = 1 (LC3-II; [5]): 188.04 and 116.854 and 172.727
LC3-II levels compared to the control (LC3-II; agent alone, 72 h/37°C, MCF-7, Bp4eT 10 and 100 nM, Dp44mT 100 nM, Baf A1 100 nM): slight, but significant (p < 0.05) increase
